Measurements: the supplement of paper PMC13207355

How the values were obtained:
Conditions in all cases: exposure time: 72 h
E21 [1] = patient-derived glioblastoma stem cells of mesenchymal subtype; test: phenotypic distance (Euclidean, principal components) from DMSO controls (arbitrary units); higher = stronger morphological change
E31 [2] = patient-derived glioblastoma stem cells of proneural subtype; test: as above
E28 [3] = patient-derived glioblastoma stem cells of classical subtype; test: as above
FT3469 [4] = normal neural stem cell line; test: as above
E13 [5] = patient-derived glioblastoma stem cells of classical subtype; test: as above
E34 [6] = patient-derived glioblastoma stem cells of proneural subtype; test: as above
E57 [7] = patient-derived glioblastoma stem cells of mesenchymal subtype; test: as above
E21 [8] = test: surviving fraction (nuclei count normalised to DMSO); higher = more cells surviving (less toxic)
E31 [9] = test: as above
E28 [10] = test: as above
FT3469 [11] = test: as above
E13 [12] = test: as above
E34 [13] = test: as above
E57 [14] = test: as above
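For phenotypic distance (Euclidean, principal components) from DMSO controls in this document: cell Painting imaging in 384-well plates, CellProfiler features reduced to at least 20 principal components, Euclidean distance versus same-plate DMSO vehicle wells (0.1% v/v), median over six images per well.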
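For surviving fraction (nuclei count normalised to DMSO) in this document: nuclei counted by high-content imaging of Hoechst-stained cells in laminin-coated 384-well plates, relative to 0.1% DMSO vehicle wells, with staurosporine as cell-death control.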

CC[C@@]1(O)C(=O)OCc2c1cc1n(c2=O)Cc2cc3c(CN(C)C)c(O)ccc3nc2-1 [Topotecan]
Conditions | phenotypic distance | surviving fraction
E13 [5], 4.1 nM | 5.03 | –
E13 [5], 12.3 nM | 5.52 | –
E13 [5], 37 nM | 5.83 | –
E13 [5], 111.1 nM | 6.68 | –
E13 [5], 333.3 nM | 6.45 | –
E13 [5], 1000 nM | 6.68 | –
E13 [5], 3000 nM | 7.15 | –
E13 [12], 4.1 nM | – | 0.414
E13 [12], 12.3 nM | – | 0.381
E13 [12], 37 nM | – | 0.367
E13 [12], 111.1 nM | – | 0.279
E13 [12], 333.3 nM | – | 0.251
E13 [12], 1000 nM | – | 0.206
E13 [12], 3000 nM | – | 0.176
E21 [1], 4.1 nM | 4.95 | –
E21 [1], 12.3 nM | 5.78 | –
E21 [1], 37 nM | 6.25 | –
E21 [1], 111.1 nM | 6.93 | –
E21 [1], 333.3 nM | 5.67 | –
E21 [1], 1000 nM | 5.76 | –
E21 [1], 3000 nM | 5.07 | –
E21 [8], 4.1 nM | – | 0.191
E21 [8], 12.3 nM | – | 0.135
E21 [8], 37 nM | – | 0.114
E21 [8], 111.1 nM | – | 0.115
E21 [8], 333.3 nM | – | 0.13
E21 [8], 1000 nM | – | 0.113
E21 [8], 3000 nM | – | 0.104
E28 [3], 4.1 nM | 3.44 | –
E28 [3], 12.3 nM | 3.75 | –
E28 [3], 37 nM | 3.05 | –
E28 [3], 111.1 nM | 3.65 | –
E28 [3], 333.3 nM | 3.55 | –
E28 [3], 1000 nM | 4.27 | –
E28 [3], 3000 nM | 4.08 | –
E28 [10], 4.1 nM | – | 0.408
E28 [10], 12.3 nM | – | 0.351
E28 [10], 37 nM | – | 0.384
E28 [10], 111.1 nM | – | 0.347
E28 [10], 333.3 nM | – | 0.333
E28 [10], 1000 nM | – | 0.288
E28 [10], 3000 nM | – | 0.28
E31 [2], 4.1 nM | 3.31 | –
E31 [2], 12.3 nM | 3.53 | –
E31 [2], 37 nM | 2.95 | –
E31 [2], 111.1 nM | 3.38 | –
E31 [2], 333.3 nM | 3.17 | –
E31 [2], 1000 nM | 3.49 | –
E31 [2], 3000 nM | 3.68 | –
E31 [9], 4.1 nM | – | 0.173
E31 [9], 12.3 nM | – | 0.149
E31 [9], 37 nM | – | 0.188
E31 [9], 111.1 nM | – | 0.176
E31 [9], 333.3 nM | – | 0.249
E31 [9], 1000 nM | – | 0.17
E31 [9], 3000 nM | – | 0.213
E34 [6], 4.1 nM | 3.5 | –
E34 [6], 12.3 nM | 2.99 | –
E34 [6], 37 nM | 3.02 | –
E34 [6], 111.1 nM | 2.09 | –
E34 [6], 333.3 nM | 2.86 | –
E34 [6], 1000 nM | 4.13 | –
E34 [6], 3000 nM | 3.32 | –
E34 [13], 4.1 nM | – | 0.539
E34 [13], 12.3 nM | – | 0.576
E34 [13], 37 nM | – | 0.519
E34 [13], 111.1 nM | – | 0.55
E34 [13], 333.3 nM | – | 0.529
E34 [13], 1000 nM | – | 0.519
E34 [13], 3000 nM | – | 0.389
E57 [7], 4.1 nM | 6.01 | –
E57 [7], 12.3 nM | 7.66 | –
E57 [7], 37 nM | 7.47 | –
E57 [7], 111.1 nM | 7.5 | –
E57 [7], 333.3 nM | 7.56 | –
E57 [7], 1000 nM | 6.96 | –
E57 [7], 3000 nM | 7.64 | –
E57 [14], 4.1 nM | – | 0.321
E57 [14], 12.3 nM | – | 0.211
E57 [14], 37 nM | – | 0.175
E57 [14], 111.1 nM | – | 0.164
E57 [14], 333.3 nM | – | 0.145
E57 [14], 1000 nM | – | 0.129
E57 [14], 3000 nM | – | 0.109
FT3469 [4], 4.1 nM | 2.65 | –
FT3469 [4], 12.3 nM | 1.91 | –
FT3469 [4], 37 nM | 2.54 | –
FT3469 [4], 111.1 nM | 2.79 | –
FT3469 [4], 333.3 nM | 2.66 | –
FT3469 [4], 1000 nM | 3.43 | –
FT3469 [4], 3000 nM | 3.06 | –
FT3469 [11], 4.1 nM | – | 0.622
FT3469 [11], 12.3 nM | – | 0.625
FT3469 [11], 37 nM | – | 0.634
FT3469 [11], 111.1 nM | – | 0.653
FT3469 [11], 333.3 nM | – | 0.629
FT3469 [11], 1000 nM | – | 0.446
FT3469 [11], 3000 nM | – | 0.464
